In US4259235A, “Tricyclic nitrogenous compounds having string plant growth regulating properties” (BASF Aktiengesellschaft, priority 1977, dated 1981):
Read-outs that look alike come from different tables or passages of the source.

Legend:
potted vines = test: Tolerance by potted vines in greenhouse; spray application; assay type: in vivo; conditions: for Potted vines - leaf damage: 4.0 and 8.0 kg/ha
Protocol: (§1) Plastic flowerpots having a volume of 300 cm^3 were filled with a sandy loam and the test plants placed therein (either as seed, as vegetatively reproduced species, or as potted plants, e.g., vines). For preemergence treatment, the active ingredients were suspended or emulsified in water as vehicle and sprayed onto the surface of the soil immediately after sowing by means of finely distributing nozzles. The potted vines were treated by spraying them with the correspondingly diluted liquor. For postemergence treatment, the agents were, as stated above, sprayed in water onto the leaves of the test plants, some liquor also falling onto the soil. In some special cases, solid active ingredients were first dissolved in dimethylformamide and then applied in a total liquor amount of 400 liters of water per hectare. For the postemergence treatment, the plants were first grown to a height of from 3 to 10 cm before being treated. With grasses, the first growth was cut, and the new growth treated 2 to 3 days after cutting. The temperature requirements of the plants were taken into account by placing them in cooler or warmer sections of the greenhouse. The experiments were run for from 4 to 6 weeks, during which time the plants were tended and their reaction to the various treatments was assessed.
(§2) The application rates are given in kg/ha of active ingredient, regardless of the method of application and the amount of water used.
(§3) A 0 to 100 scale was used for the evaluation, 0 denoting normal emergence or no damage (or no inhibition), and 100 denoting non-emergence or complete destruction of the plants. A distinction should be made in the influence on growth between desired changes without any appreciable disadvantageous phytotoxic effects (e.g., purely growth-regulating effects) and those of a phytotoxic herbicical character.

Poa pratensis = test: Growth inhibition in lawns, preemergence treatment in the greenhouse; assay type: in vivo
Protocol: as §1, §2, §3

Sinapis alba = test: Herbicidal action, pre- and postemergence application in the greenhouse; assay type: in vivo; conditions: post-emergence, read-out: % damage
Protocol: as §1, §2, §3

Lolium mult. = test: as above; assay type: in vivo; conditions: Lolium, post-emergence, read-out: % damage
Protocol: as §1, §2, §3

Mentha piper. = test: as above; assay type: in vivo; conditions: post-emergence; 3.0 kg/ha POST; read-out: % damage
Protocol: as §1, §2, §3

Ipom. spp. = test: as above; assay type: in vivo, Ipomoea spp.; conditions: Ipomoea, post-emergence; 3.0 kg/ha POST; read-out: % damage
Protocol: as §1, §2, §3

Galium apar. = test: as above; assay type: in vivo, Galium aparine; conditions: post-emergence, 3.0 kg/ha POST, read-out: % damage
Protocol: as §1, §2, §3

spring wheat [1] = test: Growth height of spring wheat, soil (preemergence) treatment, Example 9; assay type: in vivo, spring wheat ("Opal" variety); conditions: 30 days
Protocol: (§4) Spring wheat of the "Opal" variety and spring barley of the "Union" variety were grown in the winter half of the year under greenhouse conditions in plastic dishes 11.5 cm in diameter, in a peat substrate provided with sufficient nutrients.
(§5) The reductions in growth height caused by the treatment were determined by measuring the height of the plants at the end of the experiment after 30 days' growth, and comparing it with that of untreated plants.

spring barley [2] = test: Growth height of spring barley, soil (preemergence) treatment, Example 9; assay type: in vivo, spring barley ("Union" variety); conditions: 30 days
Protocol: as §4, §5

spring wheat [3] = test: Growth height of spring wheat, leaf treatment, Example 11; assay type: in vivo, spring wheat ("Opal" variety)
Protocol: (§6) The test plants--spring wheat ("Opal" variety), spring barley ("Union" variety) and spring rye ("Petkuser" variety)--were grown under greenhouse conditions in plastic dishes 11.5 cm in diameter, in a peat substrate provided with sufficient nutrients.
(§7) Leaf treatment was effected by spraying the plants at a growth height of 11 cm with aqueous formulations of the active ingredients, at three application rates.
(§8) The shortening effect caused by the compounds was shown by measurements of the height of the plants at the end of the experiment.
(§9) The prior art compound N,N,N-trimethyl-N-β-chloroethylammonium chloride (CCC, German Printed Application DAS No. 1,294,734) was used for comparison purposes.

spring barley [4] = test: Growth height of spring barley, soil treatment, Example 11; assay type: in vivo, spring barley ("Union" variety)
Protocol: as §6
(§10) The soil (preemergence) treatment was effected after sowing by pouring aqueous formulations of the active ingredients, at four application rates, onto the surface of the substrate.
as §8, §9

spring barley [5] = test: Growth height of spring barley, leaf treatment, Example 11; assay type: in vivo, spring barley ("Union" variety)
Protocol: as §6, §7, §8, §9

spring rye [6] = test: Growth height of spring rye, soil treatment, Example 11; assay type: in vivo, spring rye ("Petkuser" variety)
Protocol: as §6, §10, §8, §9

spring rye [7] = test: Growth height of spring rye, leaf treatment, Example 11; assay type: in vivo, spring rye ("Petkuser" variety)
Protocol: as §6, §7, §8, §9

CCNc1nc(Cl)nc(NCC)n1
Potted vines - leaf damage (potted vines): chlorotic yellow- ing, necroses
Change in shoot growth (potted vines; 4.0 kg/ha): 17.3 cm
Change in shoot growth (potted vines; 8.0 kg/ha): 10.3 cm

N#Cc1c(Cl)cccc1Cl
Potted vines - leaf damage (potted vines): slight chlorosis
Change in shoot growth (potted vines; 4.0 kg/ha): 15.3 cm
Change in shoot growth (potted vines; 8.0 kg/ha): 15.7 cm

[O-][N+]1=NC2C3CC(C4C3N4c3ccc(Br)cc3)C21 (stereo not shown)
Growth after emergence, remark (Poa pratensis; 0.5 to 4.0 kg/ha): very short growth overall; grass compact
inhibition at 500 g/ha (Poa pratensis; Poa pratensis, pre-emergence, 0.5 kg/ha, read-out: % growth inhibition after emergence): 50%
inhibition at 1000 g/ha (Poa pratensis; Poa pratensis, pre-emergence, 1.0 kg/ha, read-out: % growth inhibition after emergence): 60%
inhibition at 2000 g/ha (Poa pratensis; Poa pratensis, pre-emergence, 2.0 kg/ha, read-out: % growth inhibition after emergence): 60%
inhibition at 4000 g/ha (Poa pratensis; Poa pratensis, pre-emergence, 4.0 kg/ha, read-out: % growth inhibition after emergence): 70%

BrC1=CC2CC1C1N=NC21 (stereo not shown)
pest or weed control at 3000 g/ha (Sinapis alba; 3.0 kg/ha POST): 100%

O=C1NC2C3CC(C(Br)C3Br)C12 (stereo not shown)
pest or weed control at 3000 g/ha (Lolium mult.; 3.0 kg/ha POST): 95%
pest or weed control at 3000 g/ha (Mentha piper.): 40%
pest or weed control at 3000 g/ha (Ipom. spp.): 95%
pest or weed control at 3000 g/ha (Galium apar.): 70%

[O-][N+]1=NC2C3CC(C(Br)C3Br)C21 (stereo not shown)
pest or weed control at 3000 g/ha (Lolium mult.; 3.0 kg/ha POST): 85%
pest or weed control at 3000 g/ha (Lolium mult.; 3.0 kg/ha PRE): 80%
pest or weed control at 3000 g/ha (Mentha piper.): 95%
pest or weed control at 3000 g/ha (Sinapis alba; 3.0 kg/ha PRE): 80%
pest or weed control at 3000 g/ha (Ipom. spp.): 60%
pest or weed control at 3000 g/ha (Galium apar.): 40%

Cc1ccc(NC2C(Cl)C3CC2C2N=NC32)cc1 (stereo not shown)
pest or weed control at 3000 g/ha (Lolium mult.; 3.0 kg/ha POST): 100%
pest or weed control at 3000 g/ha (Lolium mult.; 3.0 kg/ha PRE): 80%
pest or weed control at 3000 g/ha (Mentha piper.): 100%
pest or weed control at 3000 g/ha (Sinapis alba; 3.0 kg/ha PRE): 100%
pest or weed control at 3000 g/ha (Ipom. spp.): 100%
pest or weed control at 3000 g/ha (Galium apar.): 75%

ClC1C2CC(C3N=NC23)C1Nc1nccs1 (stereo not shown)
pest or weed control at 3000 g/ha (Lolium mult.; 3.0 kg/ha POST): 100%
pest or weed control at 3000 g/ha (Mentha piper.): 100%
pest or weed control at 3000 g/ha (Ipom. spp.): 80%
pest or weed control at 3000 g/ha (Galium apar.): 80%

C[N+](C)(C)CCCl.[Cl-] [CCC, N,N,N-trimethyl-N-β-chloroethylammonium chloride, reference compound]
Plant height (spring wheat [1]; 3 kg/ha): 21.5 cm
Plant height, % of untreated control (spring wheat [1]; 3 kg/ha): 71.7%
Plant height (spring wheat [1]; 12 kg/ha): 19.5 cm
Plant height, % of untreated control (spring wheat [1]; 12 kg/ha): 65.0%
Plant height (spring barley [2]; 3 kg/ha): 27.5 cm
Plant height, % of untreated control (spring barley [2]; 3 kg/ha): 85.1%
Plant height (spring barley [2]; 12 kg/ha): 24.5 cm
Plant height, % of untreated control (spring barley [2]; 12 kg/ha): 75.9%
Plant height (spring wheat [3]; 0.75 kg/ha): 27.5 cm
Plant height, % of untreated control (spring wheat [3]; 0.75 kg/ha): 89.3%
Plant height (spring wheat [3]; 1.50 kg/ha): 26.0 cm
Plant height, % of untreated control (spring wheat [3]; 1.50 kg/ha): 84.4%
Plant height (spring wheat [3]; 3.00 kg/ha): 25.0 cm
Plant height, % of untreated control (spring wheat [3]; 3.00 kg/ha): 81.2%
Plant height (spring barley [4]; 0.75 kg/ha): 29.5 cm
Plant height, % of untreated control (spring barley [4]; 0.75 kg/ha): 89.9%
Plant height (spring barley [4]; 1.50 kg/ha): 29.5 cm
Plant height, % of untreated control (spring barley [4]; 1.50 kg/ha): 89.9%
Plant height (spring barley [4]; 3.00 kg/ha): 27.5 cm
Plant height, % of untreated control (spring barley [4]; 3.00 kg/ha): 83.8%
Plant height (spring barley [4]; 6.00 kg/ha): 26.0 cm
Plant height, % of untreated control (spring barley [4]; 6.00 kg/ha): 79.3%
Plant height (spring barley [5]; 0.75 kg/ha): 27.5 cm
Plant height, % of untreated control (spring barley [5]; 0.75 kg/ha): 98.4%
Plant height (spring barley [5]; 1.50 kg/ha): 27.0 cm
Plant height, % of untreated control (spring barley [5]; 1.50 kg/ha): 97.1%
Plant height (spring barley [5]; 3.00 kg/ha): 27.0 cm
Plant height, % of untreated control (spring barley [5]; 3.00 kg/ha): 97.1%
Plant height (spring rye [6]; 0.75 kg/ha): 31.5 cm
Plant height, % of untreated control (spring rye [6]; 0.75 kg/ha): 97.5%
Plant height (spring rye [6]; 1.50 kg/ha): 30.5 cm
Plant height, % of untreated control (spring rye [6]; 1.50 kg/ha): 94.4%
Plant height (spring rye [6]; 3.00 kg/ha): 30.0 cm
Plant height, % of untreated control (spring rye [6]; 3.00 kg/ha): 92.9%
Plant height (spring rye [6]; 6.00 kg/ha): 28.5 cm
Plant height, % of untreated control (spring rye [6]; 6.00 kg/ha): 88.2%
Plant height (spring rye [7]; 0.75 kg/ha): 27.0 cm
Plant height, % of untreated control (spring rye [7]; 0.75 kg/ha): 94.7%
Plant height (spring rye [7]; 1.50 kg/ha): 25.5 cm
Plant height, % of untreated control (spring rye [7]; 1.50 kg/ha): 89.5%
Plant height (spring rye [7]; 3.00 kg/ha): 25.5 cm
Plant height, % of untreated control (spring rye [7]; 3.00 kg/ha): 89.5%

C1C2C3N=NC3C1C1OC21 (stereo not shown) [drawing 388]
Plant height (spring wheat [1]; 3 kg/ha): 21.5 cm
Plant height, % of untreated control (spring wheat [1]; 3 kg/ha): 71.7%
Plant height (spring wheat [1]; 12 kg/ha): 12.5 cm
Plant height, % of untreated control (spring wheat [1]; 12 kg/ha): 41.7%

c1ccc(C2=NOC3C4CC(C5N=NC45)C23)cc1 (stereo not shown) [drawing 389]
Plant height (spring wheat [1]; 3 kg/ha): 20.0 cm
Plant height, % of untreated control (spring wheat [1]; 3 kg/ha): 66.7%
Plant height (spring wheat [1]; 12 kg/ha): 14.0 cm
Plant height, % of untreated control (spring wheat [1]; 12 kg/ha): 46.7%
